The test system of data set [1] is Human coronavirus OC43. Briefly: Antiviral activity against HCoV-OC43 infected in human NCI-H460 cells incubated for 72 hrs by CCK8 assay. Type of data set: functional, organism-based. Conditions: Betacoronavirus 1, NCI-H460, 72 h. (In general: Tetrazolium assays rely on reduction of a dye to a coloured formazan, in cell work by metabolically active cells.)
Data set [2] can be described thus: Cytotoxicity against human NCI-H460 cells incubated for 72 hrs by CCK8 assay. In kind it is toxicity, cell-based. Particulars: read-out: EC50.
Data set [3] can be described thus: Selectivity index, ratio of CC50 for cytotoxicity against human NCI-H460 cells to EC50 for antiviral activity against HCoV-OC43 infected in human NCI-H460 cells. Type of data set: toxicity, cell-based, NCI-460. Conditions: read-out: Ratio CC50/EC50.

Where only a bound is given, the exact number is not on record here.

One may read the EC50 as the midpoint of the concentration-response curve. Read a low EC50 as greater potency. Turning to `CO[C@@H]1[C@@H](O[C@@H]2O[C@H](C)[C@@H](O[C@H]3C[C@@](C)(O)[C@@H](O)[C@H](C)O3)[C@H](N(C)C)[C@H]2OC(=O)c2ccc(F)cc2C(F)(F)F)[C@@H](CC=O)C[C@@H](C)[C@@H](O[C@H]2CC[C@H](N(C)C)[C@@H](C)O2)/C=C/C=C/C[C@@H](C)OC(=O)C[C@H]1O`, in data set [1], the response was half-maximal at 1.2 µM (EC50). The CC50 at 72 h in data set [2] was 3.54 µM. For the same molecule, in data set [3], the selectivity ratio is 3.

Turning to `COc1ccc(CC(=O)O[C@H]2[C@H](C)O[C@@H](O[C@H]3[C@H](N(C)C)[C@@H](OC(C)=O)[C@H](O[C@H]4[C@@H](CC=O)C[C@@H](C)[C@@H](O[C@H]5CC[C@H](N(C)C)[C@@H](C)O5)/C=C/C=C/C[C@@H](C)OC(=O)C[C@@H](O)[C@@H]4OC)O[C@@H]3C)C[C@@]2(C)O)cc1`, the EC50 in data set [1] is > 6.25 µM. In addition, the CC50 at 72 h in data set [2] came to 13.1 µM. In addition, the selectivity ratio in data set [3] is < 2.1.

In the case of `CCCCC(=O)O[C@H]1[C@H](C)O[C@@H](O[C@H]2[C@H](N(C)C)[C@@H](O)[C@H](O[C@H]3[C@@H](CC=O)C[C@@H](C)[C@@H](O[C@H]4CC[C@H](N(C)C)[C@@H](C)O4)/C=C/C=C/C[C@@H](C)OC(=O)C[C@@H](O)[C@@H]3OC)O[C@@H]2C)C[C@@]1(C)O`, in data set [1], the EC50 was 5.61 µM. The CC50 at 72 h in data set [2] came to 34 µM. In data set [3], the selectivity ratio amounted to 6.1.

In data set [1], `CO[C@@H]1[C@@H](O[C@@H]2O[C@H](C)[C@@H](O[C@H]3C[C@@](C)(O)[C@@H](O)[C@H](C)O3)[C@H](N(C)C)[C@H]2OC(=O)c2ccc(C(F)(F)F)cc2)[C@@H](CC=O)C[C@@H](C)[C@@H](O[C@H]2CC[C@H](N(C)C)[C@@H](C)O2)/C=C/C=C/C[C@@H](C)OC(=O)C[C@H]1O` displayed an EC50 of 5.96 µM. Moreover, the CC50 at 72 h in data set [2] came out at 6.74 µM. Also, in data set [3], the selectivity ratio came out at 1.1.

`COc1ccc(CCC(=O)O[C@H]2[C@H](O[C@H]3[C@@H](CC=O)C[C@@H](C)[C@@H](O[C@H]4CC[C@H](N(C)C)[C@@H](C)O4)/C=C/C=C/C[C@@H](C)OC(=O)C[C@@H](O)[C@@H]3OC)O[C@H](C)[C@@H](O[C@H]3C[C@@](C)(O)[C@@H](O)[C@H](C)O3)[C@@H]2N(C)C)cc1` registered an EC50 in data set [1] of 4.52 µM. In addition, the CC50 at 72 h in data set [2] stood at 13.8 µM. Besides, in data set [3], the selectivity ratio was 3.

`CCCCC(=O)O[C@H]1[C@H](O[C@H]2[C@@H](CC=O)C[C@@H](C)[C@@H](O[C@H]3CC[C@H](N(C)C)[C@@H](C)O3)/C=C/C=C/C[C@@H](C)OC(=O)C[C@@H](O)[C@@H]2OC)O[C@H](C)[C@@H](O[C@H]2C[C@@](C)(O)[C@@H](O)[C@H](C)O2)[C@@H]1N(C)C` registered an EC50 in data set [1] of 5.35 µM. Further, in data set [2], the CC50 at 72 h turned out to be 33.5 µM. Further, the selectivity ratio in data set [3] is 6.2.

In the case of `COc1ccc(CC(=O)O[C@H]2[C@H](C)O[C@@H](O[C@H]3[C@H](N(C)C)[C@@H](O)[C@H](O[C@H]4[C@@H](CC=O)C[C@@H](C)[C@@H](O[C@H]5CC[C@H](N(C)C)[C@@H](C)O5)/C=C/C=C/C[C@@H](C)OC(=O)C[C@@H](O)[C@@H]4OC)O[C@@H]3C)C[C@@]2(C)O)cc1`, the EC50 in data set [1] was > 12.5 µM. In addition, the CC50 at 72 h in data set [2] amounted to 27 µM. In data set [3], the selectivity ratio was < 2.2.

On to `CO[C@@H]1[C@@H](O[C@@H]2O[C@H](C)[C@@H](O[C@H]3C[C@@](C)(O)[C@@H](O)[C@H](C)O3)[C@H](N(C)C)[C@H]2OC(=O)C2CCCCC2)[C@@H](CC=O)C[C@@H](C)[C@@H](O[C@H]2CC[C@H](N(C)C)[C@@H](C)O2)/C=C/C=C/C[C@@H](C)OC(=O)C[C@H]1O`, for which the EC50 in data set [1] was > 12.5 µM. The CC50 at 72 h in data set [2] was 15 µM. Moreover, the selectivity ratio in data set [3] was < 1.2.

`CCCC(=O)O[C@H]1[C@H](O[C@H]2[C@@H](CC=O)C[C@@H](C)[C@@H](O[C@H]3CC[C@H](N(C)C)[C@@H](C)O3)/C=C/C=C/C[C@@H](C)OC(=O)C[C@@H](O)[C@@H]2OC)O[C@H](C)[C@@H](O[C@H]2C[C@@](C)(O)[C@@H](O)[C@H](C)O2)[C@@H]1N(C)C` came in with an EC50 in data set [1] of 8.73 µM. In data set [2], the CC50 at 72 h was 68 µM. In data set [3], the selectivity ratio came to 7.8.

`CCC(=O)O[C@H]1[C@H](O[C@H]2[C@@H](CC=O)C[C@@H](C)[C@@H](O[C@H]3CC[C@H](N(C)C)[C@@H](C)O3)/C=C/C=C/C[C@@H](C)OC(=O)C[C@@H](O)[C@@H]2OC)O[C@H](C)[C@@H](O[C@H]2C[C@@](C)(O)[C@@H](O)[C@H](C)O2)[C@@H]1N(C)C` returned a 50% effective concentration (EC50) in data set [1] of 23.4 µM. The CC50 at 72 h in data set [2] is > 161 µM. The selectivity ratio in data set [3] was > 6.9.

For the molecule `CO[C@@H]1[C@@H](O[C@@H]2O[C@H](C)[C@@H](O[C@H]3C[C@@](C)(O)[C@@H](OC(=O)Cc4ccc(Cl)cc4)[C@H](C)O3)[C@H](N(C)C)[C@H]2OC(C)=O)[C@@H](CC=O)C[C@@H](C)[C@@H](O[C@H]2CC[C@H](N(C)C)[C@@H](C)O2)/C=C/C=C/C[C@@H](C)OC(=O)C[C@H]1O`, the EC50 in data set [1] was > 6.25 µM. The CC50 at 72 h in data set [2] worked out at 7.4 µM. In addition, the selectivity ratio in data set [3] is < 1.2.

In data set [1], `CO[C@@H]1[C@@H](O[C@@H]2O[C@H](C)[C@@H](O[C@H]3C[C@@](C)(O)[C@@H](O)[C@H](C)O3)[C@H](N(C)C)[C@H]2OC(=O)CC(C)C)[C@@H](CC=O)C[C@@H](C)[C@@H](O[C@H]2CC[C@H](N(C)C)[C@@H](C)O2)/C=C/C=C/C[C@@H](C)OC(=O)C[C@H]1O` returned an EC50 of 4.82 µM. The CC50 at 72 h in data set [2] was determined as 17.1 µM. The selectivity ratio in data set [3] came out at 3.5.

`CO[C@@H]1[C@@H](O[C@@H]2O[C@H](C)[C@@H](O[C@H]3C[C@@](C)(O)[C@@H](O)[C@H](C)O3)[C@H](N(C)C)[C@H]2OC(=O)/C=C/c2ccccc2)[C@@H](CC=O)C[C@@H](C)[C@@H](O[C@H]2CC[C@H](N(C)C)[C@@H](C)O2)/C=C/C=C/C[C@@H](C)OC(=O)C[C@H]1O` had a concentration for a half-maximal effect (EC50) in data set [1] of 1.48 µM. The CC50 at 72 h in data set [2] was 5.57 µM. Further, the selectivity ratio in data set [3] stood at 3.8.

Consider `CCCCCC(=O)O[C@H]1[C@H](O[C@H]2[C@@H](CC=O)C[C@@H](C)[C@@H](O[C@H]3CC[C@H](N(C)C)[C@@H](C)O3)/C=C/C=C/C[C@@H](C)OC(=O)C[C@@H](O)[C@@H]2OC)O[C@H](C)[C@@H](O[C@H]2C[C@@](C)(O)[C@@H](O)[C@H](C)O2)[C@@H]1N(C)C`, for which the EC50 in data set [1] amounted to 5.05 µM. The CC50 at 72 h in data set [2] came out at 18.2 µM. Also, the selectivity ratio in data set [3] amounted to 3.6.

Take `C=CC(=O)O[C@H]1[C@H](C)O[C@@H](O[C@H]2[C@H](N(C)C)[C@@H](OC(C)=O)[C@H](O[C@H]3[C@@H](CC=O)C[C@@H](C)[C@@H](O[C@H]4CC[C@H](N(C)C)[C@@H](C)O4)/C=C/C=C/C[C@@H](C)OC(=O)C[C@@H](O)[C@@H]3OC)O[C@@H]2C)C[C@@]1(C)O`: in data set [1], the response was half-maximal at 4.78 µM (EC50). Moreover, the CC50 at 72 h in data set [2] amounted to 18.9 µM. Moreover, in data set [3], the selectivity ratio amounted to 4.

`CCCC(=O)O[C@H]1[C@H](C)O[C@@H](O[C@H]2[C@H](N(C)C)[C@@H](O)[C@H](O[C@H]3[C@@H](CC=O)C[C@@H](C)[C@@H](O[C@H]4CC[C@H](N(C)C)[C@@H](C)O4)/C=C/C=C/C[C@@H](C)OC(=O)C[C@@H](O)[C@@H]3OC)O[C@@H]2C)C[C@@]1(C)O` showed an EC50 in data set [1] of 5.17 µM. For the same molecule, in data set [2], the CC50 at 72 h amounted to 33.1 µM. For the same molecule, the selectivity ratio in data set [3] worked out at 6.4.

For `CO[C@@H]1[C@@H](O[C@@H]2O[C@H](C)[C@@H](O[C@H]3C[C@@](C)(O)[C@@H](O)[C@H](C)O3)[C@H](N(C)C)[C@H]2OC(=O)c2ccc(F)c(C(F)(F)F)c2)[C@@H](CC=O)C[C@@H](C)[C@@H](O[C@H]2CC[C@H](N(C)C)[C@@H](C)O2)/C=C/C=C/C[C@@H](C)OC(=O)C[C@H]1O`, the EC50 in data set [1] was 1.79 µM. In addition, the CC50 at 72 h in data set [2] stood at 5.52 µM. For the same molecule, the selectivity ratio in data set [3] was determined as 3.1.

Molecule `CO[C@@H]1[C@@H](O[C@@H]2O[C@H](C)[C@@H](O[C@H]3C[C@@](C)(O)[C@@H](O)[C@H](C)O3)[C@H](N(C)C)[C@H]2OC(=O)C(C)(C)C)[C@@H](CC=O)C[C@@H](C)[C@@H](O[C@H]2CC[C@H](N(C)C)[C@@H](C)O2)/C=C/C=C/C[C@@H](C)OC(=O)C[C@H]1O` had an EC50 in data set [1] of 4.5 µM. The CC50 at 72 h in data set [2] was found to be 16.2 µM. The selectivity ratio in data set [3] is 3.6.

Consider `CO[C@@H]1[C@@H](O[C@@H]2O[C@H](C)[C@@H](O[C@H]3C[C@@](C)(O)[C@@H](O)[C@H](C)O3)[C@H](N(C)C)[C@H]2OC(=O)C2CCC2)[C@@H](CC=O)C[C@@H](C)[C@@H](O[C@H]2CC[C@H](N(C)C)[C@@H](C)O2)/C=C/C=C/C[C@@H](C)OC(=O)C[C@H]1O`, for which, in data set [1], the EC50 was > 6.25 µM. In data set [2], the CC50 at 72 h was determined as 13.7 µM. Moreover, the selectivity ratio in data set [3] is < 2.2.

In turn, `CO[C@@H]1[C@@H](O[C@@H]2O[C@H](C)[C@@H](O[C@H]3C[C@@](C)(O)[C@@H](O)[C@H](C)O3)[C@H](N(C)C)[C@H]2OC(=O)CC(C)(C)C)[C@@H](CC=O)C[C@@H](C)[C@@H](O[C@H]2CC[C@H](N(C)C)[C@@H](C)O2)/C=C/C=C/C[C@@H](C)OC(=O)C[C@H]1O` had an EC50 in data set [1] of 4.89 µM. For the same molecule, the CC50 at 72 h in data set [2] was 13.4 µM. Further, the selectivity ratio in data set [3] was 2.7.

For the molecule `CC(C)C(=O)OC[C@H]1O[C@@H](n2ccc(NO)nc2=O)[C@H](O)[C@@H]1O` [MOLNUPIRAVIR], the EC50 in data set [1] was 0.16 µM. In addition, the selectivity ratio in data set [3] turned out to be 196.

In data set [1], `C=CC(=O)O[C@H]1[C@H](C)O[C@@H](O[C@H]2[C@H](N(C)C)[C@@H](O)[C@H](O[C@H]3[C@@H](CC=O)C[C@@H](C)[C@@H](O[C@H]4CC[C@H](N(C)C)[C@@H](C)O4)/C=C/C=C/C[C@@H](C)OC(=O)C[C@@H](O)[C@@H]3OC)O[C@@H]2C)C[C@@]1(C)O` showed an EC50 of 12 µM. In addition, the CC50 at 72 h in data set [2] was determined as 38.4 µM. In data set [3], the selectivity ratio worked out at 3.2.

The values are drawn from ChEMBL document CHEMBL6103594, “Synthesis and evolution of 16-membered macrolide carrimycin derivatives as a novel class of anti-HCoV-OC43 agents targeting viral FSE RNA” (Eur J Med Chem, 2025).
